According to patent US20230295145A1, “PYRROLIDINE DERIVATIVES AND METHODS OF USE” (Genentech, Inc., priority 2020, published 2023):
Where two headings read alike, the source gives them in different places.

Key:
Assay type in all cases: cell-based
NCI-H23 = assay: Cell Viability Assay (CellTiter-Glo); conditions: 5 days
Protocol: (§1) Cell lines were cultured in RPMI-1640, 5% fetal bovine serum, and 2 mM glutamine in a humidified incubator maintained at 37° C. with 5% CO2. Cells were assessed with a Vi-CELL Cell Viability Analyzer (Beckman Coulter; Brea, CA); viability of at least 90% was required for screening. A Multidropä Combi Reagent Dispenser (Thermo Scientific; Waltham, MA) was used to plate cells into Falcons^â 384-well, black, clear-bottom plates (Catalog No. 353962; Corning; Tewksbury, MA) using seeding densities previous determined to achieve approximately 80% confluence at the final time point of the assay. The compounds were prepared at 1000× in advance using an Echo 555 liquid handler (Labcyte; Sunnyvale, CA) and stored in −80° C. until the day of compound addition. On the following day, cells were treated with compounds at final assay concentration 1 uM and 10 uM using a Bravo Automated Liquid-Handling Platform (Agilent; Santa Clara, CA). After 5 days, 25 mL CellTiter-Glo^â reagent was added using a MultiFloä Microplate Dispenser (BioTek; Winooski, VT). Cell lysis was induced by mixing for 30 minutes on an orbital shaker; plates were then incubated at room temperature for 10 minutes to stabilize the luminescent signal. Luminescence was read by a 2104 EnVision^â Multilabel Plate Reader (PerkinElmer; Waltham, MA).
(§2) The data was processed using Genedata Screener^â, Version 15 (Genedata; Basel, Switzerland) to assess compound effects on viability. Compound treated wells were normalized to the median value of 14 DMSO control wells on the same 384 well plate.

VHL [1] = target: T1, VHL (Homo sapiens, UniProt P40337); assay: VHL HEK-293 BRET Assay (VHL NanoBRET Target Engagement Assay); conditions: HEK 293 RT VHL-NanoLuc stable cells; read-out: IC50
T1 construct: expressed in transfected cells
T1 sequence (P40337 whole entry): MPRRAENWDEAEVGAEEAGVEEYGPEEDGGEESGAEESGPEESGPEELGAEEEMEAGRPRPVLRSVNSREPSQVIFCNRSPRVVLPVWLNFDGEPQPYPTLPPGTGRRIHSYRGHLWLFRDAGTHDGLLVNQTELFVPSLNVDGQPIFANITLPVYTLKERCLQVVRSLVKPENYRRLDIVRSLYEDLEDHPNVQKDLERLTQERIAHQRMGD
Protocol: The VHL NanoBRET™ Target Engagement Assay analyzes the apparent affinity of test compounds for VHL in cells by competitive displacement of a VHL NanoBRET™ tracer reversibly bound to a NanoLuc® VHL fusion protein stably expressed in the cells.
Test compounds were transferred to the assay plate (384 Well White Non-Binding Corning Assay Plates (Corning-3574)) using an Echo 555 Liquid Handler (Labcyte) in 2.5 nL increments and, as appropriate, intermediate stock concentrations of compounds, in order to prepare a titration series. 50 nL of control compound (10 mM; parental unlabeled VHL antagonist; see structure below) and 50 nL of DMSO (negative control) were dispensed into the appropriate control wells. DMSO was backfilled to a final volume of 50 nL as required. 50 nl per well of 1 mM VHL NanoBRET™ Tracer in DMSO (NanoBRET™ Tracer-PEG2-590 (see structure below)) was transferred into each well using an Echo 555 (ultimately yielding a final concentration of 1 uM). HEK 293 RT VHL-NanoLuc® stable cells were cultured in DMEM High Glucose with Pyruvate, 10% fetal bovine serum, 2 mg/mL of Geneticin Selective Antibiotic (50 mg/mL) and 2 mM HEPES (1 M). Cells were seeded in Opti-MEM (Life Technologies-11058-021), 1.7×10^5 cells/mL, 40 μl per well into the assay plate, centrifuged at 500 rpm for 30 seconds and incubated for 2 hours. Max Signal control wells consisted of DMSO only treated wells. Minimum Signal control wells contained of 10 uM parental unlabeled VHL antagonist (control compound—see structure below). 3× Complete Substrate plus Inhibitor Solution was prepared in Opti-MEM (consists of a 1:166 dilution of NanoBRET™ Nano-Glo® Substrate plus a 1:500 dilution of Extracellular NanoLuc® Inhibitor in Opti-MEM), and 20 ul was dispensed into each well of the 384-well plate and centrifuged at 1000 rpm for 1 minute, then incubated for 2 minutes at room temperature. Background Signal control wells were prepared without tracer for background correction steps.
Plates were read using a PerkinElmer Envision Reader (model 2104-0020) equipped with Luminescence option (Mirror: BRET2 Enh (PE Barcode 659), Emission Filter: Omega 610LP (Barcode 504), 2nd Emission Filter: Umbelliferone 460 (Barcode 207), Measurement height: 6.5 mm, Measurement time: 1 s). The raw BRET ratio values were calculated by dividing the acceptor emission value (610 nm) by the donor emission value (460 nm) for each sample. To correct for background, the BRET ratio in the absence of tracer (average of no-tracer control samples) was subtracted from the BRET ratio of each sample. Raw BRET units were converted to milliBRET units (mBU) by multiplying each raw BRET value by 1,000. The normalized NanoBRET™ signal was calculated relative to the Max Signal control wells (DMSO treated control wells) and the Minimum Signal control wells. Percentage inhibition was calculated relative to the Minimum Signal control and Maximum Signal control wells. IC50 values were derived by four parameter curve fitting using the Robust method.

VHL [2] = target: T1, VHL; assay: as above; conditions: IC50 values measured in the presence of digitonin; HEK 293 RT VHL-NanoLuc stable cells; read-out: IC50 + Digi (μM)*
ABC-1 = assay: Cell Viability Assay (CellTiter-Glo); conditions: 5 days
Protocol: as §1, §2

PANC-1 = assay: Cell Viability Assay (CellTiter-Glo); conditions: 10 μM, 5 days
Protocol: as §1, §2

Structure (SMILES)	Normalized viability % DMSO (NCI-H23; 1 μM)	IC50 (VHL [1])	IC50 (VHL [2])	Normalized viability % DMSO (ABC-1; 10 μM)	Normalized viability % DMSO (NCI-H23; 10 μM)	Normalized viability % DMSO (ABC-1; 1 μM)	Normalized viability % DMSO (PANC-1)
CC(C)(C)[C@@H](C(=O)N1C[C@H](O)C[C@H]1C(=O)NCC1CCS(=O)(=O)c2ccccc21)n1cc(C2CC2)nn1 (stereo partly drawn) [Compound 420, (2S,4R)-1-[(2S)-2-(4-cyclopropyltriazol-1-yl)-3,3-dimethyl-butanoyl]-N-[(1,1-dioxo-3,4-dihydro-2H-thiochromen-4-yl)methyl]-4-hydroxy-pyrrolidine-2-carboxamide]	10.8 % DMSO	3890 nM	4.3 µM	–	–	–	–
CC(C)(C)[C@@H](C(=O)N1C[C@H](O)C[C@H]1C(=O)N[C@@H]1C[C@@H](c2ccccc2)Oc2ccccc21)n1cc(C2CC2)nn1 [Compound 343, (2S,4R)-1-[(2S)-2-(4-cyclopropyltriazol-1-yl)-3,3-dimethyl-butanoyl]-4-hydroxy-N-[(2S,4R)-2-phenylchroman-4-yl]pyrrolidine-2-carboxamide]	–	15.6 nM	0.0321 µM	44.1 % DMSO	–	–	–
CNC(=O)[C@@H]1C[C@@H](O)CN1C(=O)[C@@H](n1cc(Cn2cnc3cc(C)c(C)cc32)nn1)C(C)(C)C [Compound 914, (2S,4R)-1-[(2S)-2-[4-[(5,6-dimethylbenzimidazol-1-yl)methyl]triazol-1-yl]-3,3-dimethyl-butanoyl]-4-hydroxy-N-methyl-pyrrolidine-2-carboxamide]	–	5460 nM	3 µM	–	44.5 % DMSO	–	–
Cn1c(CCNC(=O)[C@@H]2C[C@@H](O)CN2C(=O)[C@@H](n2cc(C3CC3)nn2)C(C)(C)C)nc2c(F)cccc21 [Compound 1131, (2S,4R)-1-[(2S)-2-(4-cyclopropyltriazol-1-yl)-3,3-dimethyl-butanoyl]-N-[2-(4-fluoro-1-methyl-benzimidazol-2-yl)ethyl]-4-hydroxy-pyrrolidine-2-carboxamide]	21.7 % DMSO	–	–	–	–	–	–
CC(C)(C)[C@@H](C(=O)N1C[C@H](O)C[C@H]1C(=O)NC1CCc2c(Cl)cc(Cl)cc21)n1cc(C2CC2)nn1 (stereo partly drawn) [Compound 169, (2S,4R)-1-[(2S)-2-(4-cyclopropyltriazol-1-yl)-3,3-dimethyl-butanoyl]-N-(4,6-dichloroindan-1-yl)-4-hydroxy-pyrrolidine-2-carboxamide]	–	1810 nM	2.93 µM	–	39.3 % DMSO	–	–
CC(C)(C)[C@@H](C(=O)N1C[C@H](O)C[C@H]1C(=O)NCCC1(O)CN(C(c2ccccc2)c2ccccc2)C1)n1cc(C2CC2)nn1 [Compound 449, (2S,4R)-N-[2-(1-benzhydryl-3-hydroxy-azetidin-3-yl)ethyl]-1-[(2S)-2-(4-cyclopropyltriazol-1-yl)-3,3-dimethyl-butanoyl]-4-hydroxy-pyrrolidine-2-carboxamide]	–	802 nM	2.17 µM	–	43.4 % DMSO	–	–
CCc1onc(C)c1CNC(=O)[C@@H]1C[C@@H](O)CN1C(=O)[C@@H](n1cc(C2CC2)nn1)C(C)(C)C [Compound 405, (2S,4R)-1-[(2S)-2-(4-cyclopropyltriazol-1-yl)-3,3-dimethyl-butanoyl]-N-[(5-ethyl-3-methyl-isoxazol-4-yl)methyl]-4-hydroxy-pyrrolidine-2-carboxamide]	–	2340 nM	3.18 µM	7.6 % DMSO	–	–	–
CNC(=O)C1CC(O)CN1C(=O)[C@@H](n1cc(C2CCC(C(=O)OC)CC2)nn1)C(C)(C)C (stereo in doubt) [Compound 829, Methyl 4-[1-[(1S)-1-[(2R,4S)-4-hydroxy-2-(methylcarbamoyl)pyrrolidine-1-carbonyl]-2,2-dimethyl-propyl]triazol-4-yl]cyclohexanecarboxylate]	–	2910 nM	5.86 µM	–	–	10.6 % DMSO	–
CC(C)(C)[C@@H](C(=O)N1C[C@H](O)C[C@H]1C(=O)NCC12CCCC(C1)C(=O)N2)n1cc(C2CC2)nn1 (stereo partly drawn) [Compound 110, (2S,4R)-1-[(2S)-2-(4-cyclopropyltriazol-1-yl)-3,3-dimethyl-butanoyl]-4-hydroxy-N-[(7-oxo-6-azabicyclo[3.2.1]octan-5-yl)methyl]pyrrolidine-2-carboxamide]	18.9 % DMSO	–	–	–	–	–	–
CCC(NC(=O)[C@@H]1C[C@@H](O)CN1C(=O)[C@@H](n1cc(C2CC2)nn1)C(C)(C)C)c1noc(-c2cccc(Br)c2)n1 (stereo partly drawn) [Compound 617, (2S,4R)-N-[1-[5-(3-bromophenyl)-1,2,4-oxadiazol-3-yl]propyl]-1-[(2S)-2-(4-cyclopropyltriazol-1-yl)-3,3-dimethyl-butanoyl]-4-hydroxy-pyrrolidine-2-carboxamide]	–	829 nM	1.35 µM	–	–	–	69.8 % DMSO
CC(C)(C)[C@@H](C(=O)N1C[C@H](O)C[C@H]1C(=O)NCc1ncc(-c2ccccc2)s1)n1cc(C2CC2)nn1 [Compound 140, (2S,4R)-1-[(2S)-2-(4-cyclopropyltriazol-1-yl)-3,3-dimethyl-butanoyl]-4-hydroxy-N-[(5-phenylthiazol-2-yl)methyl]pyrrolidine-2-carboxamide]	–	10 nM	0.0142 µM	45.3 % DMSO	–	–	–
CC(C)(C)[C@@H](C(=O)N1C[C@H](O)C[C@H]1C(=O)NCCCn1cnc2c(N)ncnc21)n1cc(C2CC2)nn1 [Compound 1129, (2S,4R)-N-[3-(6-aminopurin-9-yl)propyl]-1-[(2S)-2-(4-cyclopropyltriazol-1-yl)-3,3-dimethyl-butanoyl]-4-hydroxy-pyrrolidine-2-carboxamide]	–	17300 nM	2.33 µM	4.2 % DMSO	–	–	–
CNC(=O)[C@@H]1C[C@@H](O)CN1C(=O)[C@@H](n1cc(-c2cnc(F)cc2C)nn1)C(C)(C)C [Compound 792, (2S,4R)-1-[(2S)-2-[4-(6-fluoro-4-methyl-3-pyridyl)triazol-1-yl]-3,3-dimethyl-butanoyl]-4-hydroxy-N-methyl-pyrrolidine-2-carboxamide]	–	1920 nM	2.46 µM	13.9 % DMSO	–	–	–
CNC(=O)[C@@H]1C[C@@H](O)CN1C(=O)[C@@H](n1cc(COc2ccccc2F)nn1)C(C)(C)C [Compound 729, (2S,4R)-1-[(2S)-2-[4-[(2-fluorophenoxy)methyl]triazol-1-yl]-3,3-dimethyl-butanoyl]-4-hydroxy-N-methyl-pyrrolidine-2-carboxamide]	7.4 % DMSO	960 nM	1.48 µM	35.8 % DMSO	–	–	–
CC(C)(C)[C@@H](C(=O)N1C[C@H](O)C[C@H]1C(=O)NC(CO)c1ccc(Br)c(F)c1)n1cc(C2CC2)nn1 (stereo partly drawn) [Compound 174, (2S,4R)-N-[1-(4-bromo-3-fluoro-phenyl)-2-hydroxy-ethyl]-1-[(2S)-2-(4-cyclopropyltriazol-1-yl)-3,3-dimethyl-butanoyl]-4-hydroxy-pyrrolidine-2-carboxamide]	–	11.4 nM	0.0152 µM	50.7 % DMSO	–	–	–
CC[S+]([O-])C1CCCCC1NC(=O)[C@@H]1C[C@@H](O)CN1C(=O)[C@@H](n1cc(C2CC2)nn1)C(C)(C)C (stereo partly drawn) [Compound 554, (2S,4R)-1-[(2S)-2-(4-cyclopropyltriazol-1-yl)-3,3-dimethyl-butanoyl]-N-(2-ethylsulfinylcyclohexyl)-4-hydroxy-pyrrolidine-2-carboxamide]	–	17200 nM	22.2 µM	38.2 % DMSO	–	–	–
CN1CC(CCNC(=O)[C@@H]2C[C@@H](O)CN2C(=O)[C@@H](n2cc(C3CC3)nn2)C(C)(C)C)CC1=O (stereo partly drawn) [Compound 236, (2S,4R)-1-[(2S)-2-(4-cyclopropyltriazol-1-yl)-3,3-dimethyl-butanoyl]-4-hydroxy-N-[2-(1-methyl-5-oxo-pyrrolidin-3-yl)ethyl]pyrrolidine-2-carboxamide]	18.7 % DMSO	–	–	–	–	–	–
